Measurements published in patent US20060182722A1, “Methods and materials for isolating isogenic islet cells” (priority 2005, published 2006).
“And” between values parts separate entries of the source, which are not always exact repeats. Identical values can stand only once. One block for each molecule: values may come before it.

Assays:
[1] = test system: type 1 diabetic recipients; experiment: Example 3: safety assessments; type: in vivo, human; settings: of 8 recipients; resolved or improved with dose reduction
Protocol: Safety was assessed by monitoring the severity and duration of adverse events. Efficacy was assessed by studying the recipients' insulin requirements, C-peptide levels, oral and intravenous glucose tolerance results, intravenous arginine stimulation responses, and HbA1c levels. Safety Assessments. Recipients underwent clinical, laboratory, and diagnostic safety assessments daily during their transplant hospitalization and at each of their 19 posttransplant study visits. Portal pressure was monitored during the transplant procedure. On days +1 and +7, ultrasonographic examination was done of the right upper quadrant including Doppler examination of the portal venous system. The severity and duration of any adverse events were monitored and recorded. Laboratory tests assessed hematology, chemistry, liver transaminases, lipids, standard creatinine clearance, and urinary albumin excretion. Adverse events were graded per the National Cancer Institute's Common Toxicity Criteria, Version 2.0.

[2] = Example 3: immunosuppressant whole blood trough levels; type: in vivo, human; settings: for Drug Exposure: whole blood trough levels, individual recipients #1-#8
Protocol: Maintenance immunosuppression was initiated with sirolimus (0.2 mg/kg starting on day −2, followed by 0.1 mg/kg daily; target whole blood trough levels 5 to 15 ng/mL, as tolerated), and reduced-dose tacrolimus (0.015 mg/kg twice daily, starting on day +1; target whole blood trough levels 3 to 6 ng/mL). At 1 month posttransplant, tacrolimus was gradually replaced with mycophenolate mofetil (MMF; 750 to 1000 mg, twice daily); tacrolimus was either discontinued or dosed to a target trough level of <3 ng/mL. If target levels of sirolimus could not be achieved or maintained, however, tacrolimus (target level, 3 to 6 ng/mL) was continued.
The 5 recipients received daily MMF doses of 1.5 to 2.0 g. They either (a) achieved and maintained sirolimus trough levels >9 ng/mL, with tacrolimus trough levels of 0 to <3 ng/mL, or (b) in the absence of target sirolimus trough levels, tacrolimus trough levels of 3 to 6 ng/mL. The 3 recipients who resumed exogenous insulin therapy had received ≧1.5 g/day of MMF but had subtherapeutic sirolimus trough levels (<9 ng/mL) in the absence of measurable tacrolimus trough levels (<3 ng/mL). Please see Table 5 for immunosuppression.

[3] = Example 4: sirolimus whole blood trough concentration; type: in vivo, human
Protocol: Immunosuppression. […] On days 0 through +9 posttransplant, they received a daily 4-mg dose. […] The doses were based on those previously used to treat kidney graft rejection (Woddle et al., Transplantation 1999; 68:608-616). Premedication was with acetaminophen, diphenhydramine, and pentoxifylline. Sirolimus (Rapamune, Wyeth-Ayerst) was initiated orally at a dose of 0.2 mg/kg on day −2, followed by 0.1 mg/kg daily; the dose then was titrated and adjusted to achieve a target whole blood trough level of 5 to 10 ng/mL. Mean trough concentration prior to transplant on day 0 was 6.1±1.7 ng/mL and on day +2 was 6.7±1.9 ng/mL. Reduced-dose tacrolimus (Prograf, Fujisawa) was administered orally to all islet recipients beginning on […] posttransplant at 0.015 mg/kg 2 times per day; the dose was then adjusted to achieve a target whole blood trough level of 3 to 6 ng/mL (Shapiro et al., New Engl. J. Med. 2000; 343:230-238).

T1D patients = experiment: Example 4: safety assessments; parameters: species or system human; settings: in vivo
Description: Safety assessments. Recipients underwent clinical, laboratory, and diagnostic safety assessments. Daily during their transplant hospitalization and at each of their 23 posttransplant study visits, the severity and duration of any adverse events were monitored and recorded. Laboratory tests included hematology, chemistry, liver transaminases, lipids, standard creatinine clearance, and urinary albumin excretion. Adverse events were graded based on the National Cancer Institute's Common Toxicity Criteria, Version 2.0.

[4] = test system: serum cytokines (IL-10, TNF-α); experiment: Serum cytokines before and after hOKT3γ1 (Ala-Ala); type: in vivo, human
[5] = Monitoring hOKT3γ1 (Ala-Ala): serum levels; type: in vivo, human; settings: table: individual subjects #1-#6, text: mean; for Peak hOKT3γ1 (Ala-Ala) level achieved: serum
Description: (§1) Monitoring hOKT3γ1 (Ala-Ala). Flow cytometry was used to enumerate CD2^+, CD4^+, CD8^+, CD25^+, and CD69^+ T cells. […] Anti-idiotype antibodies were identified by ELISA, by the use of plate-bound OKT3, or by flow cytometry, in order to measure the blockade of binding of OKT3 fluorescein isothiocyanate to CD3 (Chatenoud, Transplant Proc. 1993; 25:68-73).

[6] = test system: autoreactive and alloreactive T cell responses; settings: clinical; cited from earlier work
[7] = Anti-idiotype antibodies by ELISA; type: in vivo, human; settings: all recipients treated
Description: as §1

CD3 = biological target: T1, CD3 (Homo sapiens, UniProt P07766); experiment: Monitoring hOKT3γ1 (Ala-Ala): coating of the CD3 molecule on PBLs; type: in vivo; settings: table: individual subjects #1-#6, text: mean
T1 construct: endogenous in cells; host or cells: peripheral blood lymphocytes (PBLs) of the treated patients
T1 sequence (P07766 23-207): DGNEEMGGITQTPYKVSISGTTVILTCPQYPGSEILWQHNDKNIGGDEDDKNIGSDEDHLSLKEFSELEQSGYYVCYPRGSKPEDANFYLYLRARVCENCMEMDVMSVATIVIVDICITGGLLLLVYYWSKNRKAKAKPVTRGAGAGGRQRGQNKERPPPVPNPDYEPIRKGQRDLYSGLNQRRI
T1 sequence (P09693 23-182 partner): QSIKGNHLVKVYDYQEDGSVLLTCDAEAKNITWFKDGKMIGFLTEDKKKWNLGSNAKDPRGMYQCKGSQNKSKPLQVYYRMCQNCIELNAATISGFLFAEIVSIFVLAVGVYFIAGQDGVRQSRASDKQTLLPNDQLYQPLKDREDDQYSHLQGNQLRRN
T1 sequence (P04234 22-171 partner): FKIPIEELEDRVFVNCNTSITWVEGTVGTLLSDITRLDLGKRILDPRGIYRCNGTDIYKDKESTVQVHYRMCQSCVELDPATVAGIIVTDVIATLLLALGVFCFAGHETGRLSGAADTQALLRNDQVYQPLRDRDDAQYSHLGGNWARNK
T1 sequence (P20963 22-164 partner): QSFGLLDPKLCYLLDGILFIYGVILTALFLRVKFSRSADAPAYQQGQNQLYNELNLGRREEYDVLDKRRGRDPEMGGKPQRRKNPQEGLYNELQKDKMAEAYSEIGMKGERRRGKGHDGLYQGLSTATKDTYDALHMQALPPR
Description: as §1

[8] = the 3 recipients who resumed exogenous insulin therapy

Molecule: COc1c(C)c2c(c(O)c1C/C=C(\C)CCC(=O)OCCN1CCOCC1)C(=O)OC2 [MMF, mycophenolate mofetil]
- Recipients with transient diarrhea after beginning MMF therapy [1]: 6

- Trough levels ([2]; recipients with sustained insulin independence, case (a)): > 9 ng/mL
- Trough levels [2, 8]: < 9 ng/mL
- Mean trough concentration ([3]; day +2): 6.7 ± 1.9 ng/mL
- Mean trough concentration ([3]; prior to transplant on day 0): 6.1 ± 1.7 ng/mL
Molecule: CO[C@H]1C[C@@H]2CC[C@@H](C)[C@@](O)(O2)C(=O)C(=O)N2CCCC[C@H]2C(=O)O[C@H]([C@H](C)C[C@@H]2CC[C@@H](O)[C@H](OC)C2)CC(=O)[C@H](C)/C=C(\C)[C@@H](O)[C@@H](OC)C(=O)[C@H](C)C[C@H](C)/C=C/C=C/C=C/1C [Sirolimus, sirolimus]
- Drug Exposure [2]: 4-8 ng/ml and >9 ng/ml (3×) and 2-3 ng/ml and 7-9 ng/ml and 4-9 ng/ml and 6-8 ng/ml

- Trough levels [2, 8]: < 3 ng/mL
Molecule: C=CC[C@@H]1/C=C(\C)C[C@H](C)C[C@H](OC)[C@H]2O[C@@](O)(C(=O)C(=O)N3CCCC[C@H]3C(=O)O[C@H](/C(C)=C/[C@@H]3CC[C@@H](O)[C@H](OC)C3)[C@H](C)[C@@H](O)CC1=O)[C@H](C)C[C@@H]2OC [Tacrolimus, tacrolimus]
- Drug Exposure [2]: 0 ng/ml (2×) and 4-5 ng/ml and 4-6 ng/ml and <3 ng/ml and 3 ng/ml

Molecule: C[C@@H]1[C@H](O)[C@@H](C)/C=C/C=C/CC/C=C/C=C/C=C/C=C/C(O[C@H]2O[C@H](C)[C@@H](O)[C@H](N)[C@@H]2O)CC2O[C@](O)(CC(O)C(O)CCC(O)CC(O)CC(O)CC(=O)O[C@H]1C)CC(O)C2C(=O)O (stereo partly shown) [nystatin]
- Serious adverse event determined to be related to treatment (T1D patients): generalized rash

- Duration >80% CD3 coating (Total # of days) (CD3): 4.8 ± 2.6 days
- Time to 80% CD3 coating (# of days) (CD3): 7.3 ± 2.9 days
Molecule: hOKT3γ1 (Ala-Ala): humanized anti-CD3 antibody retaining the binding region of OKT3; human IgG1 Fc mutated to prevent binding to the Fc receptor
- Mean peak serum TNF-α after administration ([4]; 29.9±31.7 pg/mL prior to administration): 267.6 ± 120.3 pg/mL
- Serum IL-10 levels after administration compared with pre-dosing levels ([4]; all participants): increased in all participants
- Peak hOKT3γ1 (Ala-Ala) level achieved [5]: 1196 ± 821 ng/mL
- Peak hOKT3γ1 (Ala-Ala) level achieved ([5]; listed as hOKT3γ1 (Ala—Ala)): 872 ng/mL and 450 ng/mL and 1028 ng/mL and 736 ng/mL and 2761 ng/mL and 1330 ng/mL
- Days to negative hOKT3γ1 (Ala-Ala) level after last dose [5]: 61 ± 32 days
- Days to negative hOKT3γ1 (Ala-Ala) level after last dose ([5]; listed as hOKT3γ1 (Ala—Ala)): 91 days and 111 days and 47 days and 50 days and 33 days and 34 days
- Kidney graft rejection [6]: reversed kidney graft rejection
- Side effects compared with the parental OKT3 antibody [6]: markedly fewer side effects
- Anti-idiotype antibodies [7]: Absence of anti-idiotype antibodies
- Duration >80% CD3 coating (Total # of days) (CD3; listed as hOKT3γ1 (Ala—Ala)): 4 days (2×) and 3 days and 2 days and 8 days (2×)
- Time to 80% CD3 coating (# of days) (CD3; listed as hOKT3γ1 (Ala—Ala)): 9.5 days and 8.5 days and 11.5 days and 4.5 days (2×) and 5.5 days
